Patent US12077503B2, “Substituted cyclic amides and their use as herbicides” (FMC CORPORATION, priority 2015, dated 2024)
Where two headings read alike, the source gives them in different places.

Legend:
Assay type in all cases: in vivo
[1] = system: blackgrass (Alopecurus myosuroides); assay: Test A postemergence; details: Alopecurus myosuroides, post-emergence, 240 h, 125 g ai/ha
Method in brief: (§1)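 In a loam soil and sand blend, planted seeds got a preemergence directed soil spray, and young plants at the one- to two-leaf stage, 2–10 cm high, got a postemergence application; ~10 d greenhouse hold; injury rated visually, 0 = none, 100 = complete control.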

[2] = system: ryegrass, Italian (Italian ryegrass, Lolium multiflorum); assay: Test A postemergence; details: Lolium multiflorum, post-emergence, 240 h, 125 g ai/ha
Method in brief: as §1

[3] = system: giant foxtail (Setaria faberii); assay: Test A postemergence; details: Setaria faberi, post-emergence, 240 h, 125 g ai/ha
Method in brief: as §1

[4] = system: ragweed (common ragweed, Ambrosia elatior); assay: Test A postemergence; details: Ambrosia artemisiifolia, post-emergence, 240 h, 125 g ai/ha
Method in brief: as §1

Kochia (Kochia scoparia) [5] = assay: Test A postemergence; details: Bassia scoparia, post-emergence, 240 h, 125 g ai/ha
Method in brief: as §1

[6] = system: Galium (catchweed bedstraw, Galium aparine); assay: Test A postemergence; details: Galium, post-emergence, 240 h, 125 g ai/ha
Method in brief: as §1

[7] = system: pigweed (Amaranthus retroflexus); assay: Test A postemergence; details: Amaranthus retroflexus, post-emergence, 240 h, 125 g ai/ha
Method in brief: as §1

corn (Zea mays) = assay: Test A postemergence; details: Zea mays, post-emergence, 240 h, 125 g ai/ha; for plant injury at 125 g/ha: postemergence, visual injury rating after approximately 10 d, read-out: Corn plant response rating (0 to 100 scale, 0 no effect, 100 complete control); for Corn plant response rating (crop injury, 0 = no effect, 100 = complete kill) at 125 g/ha: Postemergence, visual injury after approximately 10 d, 0 to 100 scale where 0 is no effect and 100 is complete control
Method in brief: as §1

[8] = system: barnyardgrass (Echinochloa crus-galli); assay: Test A postemergence; details: Echinochloa crus-galli, post-emergence, 240 h, 125 g ai/ha
Method in brief: as §1

[9] = system: wheat (Triticum aestivum); assay: Test A postemergence; details: Triticum aestivum, post-emergence, 240 h, 125 g ai/ha
Method in brief: as §1

[10] = system: ryegrass, Italian (Italian ryegrass, Lolium multiflorum); assay: Test A preemergence; details: Lolium multiflorum, pre-emergence, 240 h; for pest or weed control at 125 g/ha: 125 g ai/ha, preemergence, 0 to 100 scale where 0 is no effect and 100 is complete control, read-out: Ryegrass, Italian plant response rating; for pest or weed control at 500 g/ha: 500 g ai/ha, Preemergence, visual injury vs untreated controls after approximately 10 d, read-out: Ryegrass, Italian plant response rating (0 to 100 scale where 0 is no effect and 100 is complete control)
Method in brief: as §1

[11] = system: giant foxtail (Setaria faberii); assay: Test A preemergence; details: Setaria faberi, pre-emergence, 240 h; for pest or weed control at 125 g/ha: 125 g ai/ha, preemergence, 0 to 100 scale where 0 is no effect and 100 is complete control, read-out: Foxtail, Giant plant response rating; for pest or weed control at 500 g/ha: 500 g ai/ha, Preemergence, visual injury vs untreated controls after approximately 10 d, read-out: Foxtail, Giant plant response rating (0 to 100 scale where 0 is no effect and 100 is complete control)
Method in brief: as §1

[12] = system: ragweed (common ragweed, Ambrosia elatior); assay: Test A preemergence; details: Ambrosia artemisiifolia, pre-emergence, 240 h; for pest or weed control at 125 g/ha: 125 g ai/ha, preemergence, 0 to 100 scale where 0 is no effect and 100 is complete control, read-out: Ragweed plant response rating; for pest or weed control at 500 g/ha: 500 g ai/ha, Preemergence, visual injury vs untreated controls after approximately 10 d, read-out: Ragweed plant response rating (0 to 100 scale where 0 is no effect and 100 is complete control)
Method in brief: as §1

Kochia (Kochia scoparia) [13] = assay: Test A preemergence; details: Bassia scoparia, pre-emergence, 240 h; for pest or weed control at 125 g/ha: 125 g ai/ha, preemergence, 0 to 100 scale where 0 is no effect and 100 is complete control, read-out: Kochia plant response rating; for pest or weed control at 500 g/ha: 500 g ai/ha, Preemergence, visual injury vs untreated controls after approximately 10 d, read-out: Kochia plant response rating (0 to 100 scale where 0 is no effect and 100 is complete control)
Method in brief: as §1

[14] = system: pigweed (Amaranthus retroflexus); assay: Test A preemergence; details: Amaranthus retroflexus, pre-emergence, 240 h; for pest or weed control at 125 g/ha: 125 g ai/ha, preemergence, 0 to 100 scale where 0 is no effect and 100 is complete control, read-out: Pigweed plant response rating; for pest or weed control at 500 g/ha: 500 g ai/ha, Preemergence, visual injury vs untreated controls after approximately 10 d, read-out: Pigweed plant response rating (0 to 100 scale where 0 is no effect and 100 is complete control)
[15] = system: barnyardgrass (Echinochloa crus-galli); assay: Test A preemergence; details: Echinochloa crus-galli, pre-emergence, 240 h; for pest or weed control at 125 g/ha: 125 g ai/ha, preemergence, 0 to 100 scale where 0 is no effect and 100 is complete control, read-out: Barnyardgrass plant response rating; for pest or weed control at 500 g/ha: 500 g ai/ha, Preemergence, visual injury vs untreated controls after approximately 10 d, read-out: Barnyardgrass plant response rating (0 to 100 scale where 0 is no effect and 100 is complete control)
Method in brief: as §1

[16] = postemergence, visual injury rating after approximately 10 d, read-out: Blackgrass plant response rating (0 to 100 scale, 0 no effect, 100 complete control)
[17] = postemergence, visual injury rating after approximately 10 d, read-out: Ryegrass, Italian plant response rating (0 to 100 scale, 0 no effect, 100 complete control)
[18] = postemergence, visual injury rating after approximately 10 d, read-out: Foxtail, Giant plant response rating (0 to 100 scale, 0 no effect, 100 complete control)
[19] = postemergence, visual injury rating after approximately 10 d, read-out: Ragweed plant response rating (0 to 100 scale, 0 no effect, 100 complete control)
[20] = postemergence, visual injury rating after approximately 10 d, read-out: Kochia plant response rating (0 to 100 scale, 0 no effect, 100 complete control)
[21] = postemergence, visual injury rating after approximately 10 d, read-out: Galium plant response rating (0 to 100 scale, 0 no effect, 100 complete control)
[22] = postemergence, visual injury rating after approximately 10 d, read-out: Pigweed plant response rating (0 to 100 scale, 0 no effect, 100 complete control)
[23] = postemergence, visual injury rating after approximately 10 d, read-out: Barnyardgrass plant response rating (0 to 100 scale, 0 no effect, 100 complete control)
[24] = postemergence, visual injury rating after approximately 10 d, read-out: Wheat plant response rating (0 to 100 scale, 0 no effect, 100 complete control)
[25] = Postemergence, visual injury after approximately 10 d, 0 to 100 scale where 0 is no effect and 100 is complete control, read-out: Plant response rating, Blackgrass
[26] = Postemergence, visual injury after approximately 10 d, 0 to 100 scale where 0 is no effect and 100 is complete control, read-out: Plant response rating, Ryegrass, Italian
[27] = Postemergence, visual injury after approximately 10 d, 0 to 100 scale where 0 is no effect and 100 is complete control, read-out: Plant response rating, Foxtail, Giant
[28] = Postemergence, visual injury after approximately 10 d, 0 to 100 scale where 0 is no effect and 100 is complete control, read-out: Plant response rating, Ragweed
[29] = Postemergence, visual injury after approximately 10 d, 0 to 100 scale where 0 is no effect and 100 is complete control, read-out: Plant response rating, Kochia
[30] = Postemergence, visual injury after approximately 10 d, 0 to 100 scale where 0 is no effect and 100 is complete control, read-out: Plant response rating, Galium
[31] = Postemergence, visual injury after approximately 10 d, 0 to 100 scale where 0 is no effect and 100 is complete control, read-out: Plant response rating, Pigweed
[32] = Postemergence, visual injury after approximately 10 d, 0 to 100 scale where 0 is no effect and 100 is complete control, read-out: Plant response rating, Barnyardgrass
[33] = Postemergence, visual injury after approximately 10 d, 0 to 100 scale where 0 is no effect and 100 is complete control, read-out: Plant response rating, Wheat

Cc1cc(C)cc([C@H]2CN(C)C(=O)[C@@H]2C(=O)Nc2ccccc2F)c1 [Compound 910]
10%: pest or weed control at 125 g/ha [4, 19]
100%: pest or weed control at 500 g/ha [11] | pest or weed control at 500 g/ha [15]
50%: pest or weed control at 125 g/ha [1, 16] | pest or weed control at 125 g/ha [2, 17] | pest or weed control at 125 g/ha [10]
20%: pest or weed control at 125 g/ha (Kochia (Kochia scoparia) [5]; [20])
0%: pest or weed control at 125 g/ha [7, 22] | plant injury at 125 g/ha [9, 24] | pest or weed control at 125 g/ha [12] | pest or weed control at 500 g/ha [12] | pest or weed control at 125 g/ha [14]
90%: pest or weed control at 125 g/ha [3, 18] | pest or weed control at 125 g/ha [8, 23] | pest or weed control at 125 g/ha [11] | pest or weed control at 500 g/ha (Kochia (Kochia scoparia) [13]) | pest or weed control at 125 g/ha [15]
30%: pest or weed control at 125 g/ha [6, 21] | pest or weed control at 500 g/ha [14]
70%: plant injury at 125 g/ha (corn (Zea mays))
60%: pest or weed control at 500 g/ha [10] | pest or weed control at 125 g/ha (Kochia (Kochia scoparia) [13])

Cc1cc(C)cc([C@H]2CN(C)C(=O)[C@@H]2C(=O)Nc2ccccc2C(F)(F)F)c1 [Compound 912]
40%: pest or weed control at 125 g/ha [10]
100%: pest or weed control at 500 g/ha [11]
80%: pest or weed control at 125 g/ha [8, 23] | pest or weed control at 125 g/ha [15]
90%: pest or weed control at 125 g/ha [3, 18] | pest or weed control at 125 g/ha [11] | pest or weed control at 500 g/ha [15]
70%: pest or weed control at 500 g/ha (Kochia (Kochia scoparia) [13])
20%: pest or weed control at 125 g/ha [2, 17] | plant injury at 125 g/ha [9, 24]
50%: pest or weed control at 500 g/ha [10]
30%: pest or weed control at 125 g/ha [1, 16] | plant injury at 125 g/ha (corn (Zea mays))
0%: pest or weed control at 125 g/ha [4, 19] | pest or weed control at 125 g/ha (Kochia (Kochia scoparia) [5]; [20]) | pest or weed control at 125 g/ha [6, 21] | pest or weed control at 125 g/ha [7, 22] | pest or weed control at 125 g/ha [12] | pest or weed control at 500 g/ha [12] | pest or weed control at 125 g/ha [14] | pest or weed control at 500 g/ha [14]
60%: pest or weed control at 125 g/ha (Kochia (Kochia scoparia) [13])

CN1CC[C@H](c2ccc(F)cc2)[C@@H](C(=O)Nc2ccccc2F)C1=O [Compound 917]
20%: pest or weed control at 125 g/ha [15]
90%: pest or weed control at 500 g/ha [11]
0%: pest or weed control at 125 g/ha [1, 25] | pest or weed control at 125 g/ha [2, 26] | pest or weed control at 125 g/ha [3, 27] | pest or weed control at 125 g/ha [4, 28] | pest or weed control at 125 g/ha (Kochia (Kochia scoparia) [5]; [29]) | pest or weed control at 125 g/ha [6, 30] | pest or weed control at 125 g/ha [7, 31] | Corn plant response rating (crop injury, 0 = no effect, 100 = complete kill) at 125 g/ha (corn (Zea mays)) | pest or weed control at 125 g/ha [8, 32] | plant injury at 125 g/ha [9, 33] | pest or weed control at 125 g/ha [10] | pest or weed control at 500 g/ha [10] | pest or weed control at 125 g/ha [12] | pest or weed control at 500 g/ha [12] | pest or weed control at 125 g/ha (Kochia (Kochia scoparia) [13]) | pest or weed control at 500 g/ha (Kochia (Kochia scoparia) [13]) | pest or weed control at 125 g/ha [14] | pest or weed control at 500 g/ha [14]
30%: pest or weed control at 125 g/ha [11]
80%: pest or weed control at 500 g/ha [15]

COc1ccc(CN2CC[C@H](c3ccc(F)cc3)[C@@H](C(=O)Nc3cccc(F)c3F)C2=O)cc1 [Compound 919]
0%: pest or weed control at 125 g/ha [1, 25] | pest or weed control at 125 g/ha [2, 26] | pest or weed control at 125 g/ha [3, 27] | pest or weed control at 125 g/ha [4, 28] | pest or weed control at 125 g/ha (Kochia (Kochia scoparia) [5]; [29]) | pest or weed control at 125 g/ha [6, 30] | pest or weed control at 125 g/ha [7, 31] | Corn plant response rating (crop injury, 0 = no effect, 100 = complete kill) at 125 g/ha (corn (Zea mays)) | pest or weed control at 125 g/ha [8, 32] | plant injury at 125 g/ha [9, 33] | pest or weed control at 125 g/ha [10] | pest or weed control at 500 g/ha [10] | pest or weed control at 125 g/ha [11] | pest or weed control at 500 g/ha [11] | pest or weed control at 125 g/ha [12] | pest or weed control at 500 g/ha [12] | pest or weed control at 125 g/ha (Kochia (Kochia scoparia) [13]) | pest or weed control at 500 g/ha (Kochia (Kochia scoparia) [13]) | pest or weed control at 125 g/ha [14] | pest or weed control at 500 g/ha [14] | pest or weed control at 125 g/ha [15] | pest or weed control at 500 g/ha [15]
